Source: PubChem BioAssay AID330 (DTP/NCI, 2004)
Where “and” joins values, the source holds several entries; their conditions need not be identical. Equal entries are not always repeated. Toxic doses and inconclusive results are not listed.

Test system: P388 leukemia ip, CD2F1 mice, survival T/C
Test: NCI In Vivo Anticancer Drug Screen. Data for tumor model P388 Leukemia (intraperitoneal) in CD2F1 (CDF1) mice
Conditions: endpoint: median survival time, higher = longer survival
In short: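 Mice carrying the transplanted tumor received test compound or vehicle. Survival was recorded in each group, and the value is the treated-group measurement divided by that of the vehicle-treated control group.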

[1] = dose: 50.0 mg/kg/injection, schedule: Q01DX005 (ip), vehicle: saline with Tween-80
[2] = dose: 100.0 mg/kg/injection, schedule: Q01DX005 (ip), vehicle: saline with Tween-80
[3] = dose: 200.0 mg/kg/injection, schedule: Q01DX005 (ip), vehicle: saline with Tween-80

With `O=C(O)CCc1c[nH]c2ccc(N(CCCl)CCCl)cc12` the T/C (dose: 0.08 mg/kg/injection, schedule: Q04DX003 (ip), vehicle: saline with Tween-80) was 163 % of control, the T/C (dose: 0.15 mg/kg/injection, schedule: Q04DX003 (ip), vehicle: saline with Tween-80) was 100 % of control and the T/C (dose: 0.25 mg/kg/injection, schedule: Q01DX009 (ip), vehicle: saline) was 104 % of control. For the same molecule, the T/C (dose: 0.33 mg/kg/injection, schedule: Q04DX003 (ip), vehicle: saline with Tween-80) was 177 % of control, the T/C (dose: 0.5 mg/kg/injection, schedule: Q04DX003 (ip), vehicle: saline with Tween-80) was 177 % of control and the T/C (dose: 0.75 mg/kg/injection, schedule: Q04DX003 (ip), vehicle: saline with Tween-80) was 104 % of control.
With `Cc1ccccc1N1C(=O)CSC1=S` the T/C (dose: 12.5 mg/kg/injection, schedule: Q01DX009 (ip), vehicle: saline with Tween-80) was 105 % of control, the T/C (dose: 25.0 mg/kg/injection, schedule: Q01DX009 (ip), vehicle: saline with Tween-80) was 95 % of control and the T/C (dose: 50.0 mg/kg/injection, schedule: Q01DX009 (ip), vehicle: saline with Tween-80) was 105 % of control.
With `COc1cccc2c1C(=O)c1c(O)c3c(c(O)c1C2=O)CC(O)(C(=O)CO)CC3OC1CC(N(Cc2ccccc2)Cc2ccccc2)C(O)C(C)O1` (configuration not stated) the T/C (dose: 0.2 mg/kg/injection, schedule: Q01DX009 (ip), vehicle: water) was 115 % of control, the T/C (dose: 1.56 mg/kg/injection, schedule: Q01DX009 (ip), vehicle: water) was 151 % of control and the T/C (dose: 3.13 mg/kg/injection, schedule: Q01DX009 (ip), vehicle: water) was 156 % of control. The T/C (dose: 6.25 mg/kg/injection, schedule: Q01DX009 (ip), vehicle: water) was 175 % of control.
`O=C(Nc1ccccn1)c1ccccc1S(=O)(=O)O` was tested, and the T/C [1] was 102 % of control, the T/C [2] was 104 % of control and the T/C [3] was 99 % of control.
In the case of `CC(C)(C)CC(C)(C)c1ccc(OCCOc2ccc(C(=O)NCCNC(=O)c3ccc4ccccc4c3O)cc2N)cc1`, the T/C (dose: 6.25 mg/kg/injection, schedule: Q01DX009 (ip), vehicle: Klucel (hydroxypropylcellulose) (HPC)) is reported as 102 % of control, the T/C (dose: 12.5 mg/kg/injection, schedule: Q01DX009 (ip), vehicle: Klucel (hydroxypropylcellulose) (HPC)) is reported as 114 % of control and the T/C (dose: 25.0 mg/kg/injection, schedule: Q01DX009 (ip), vehicle: Klucel (hydroxypropylcellulose) (HPC)) is reported as 102 % of control. For the same molecule, the T/C (dose: 50.0 mg/kg/injection, schedule: Q01DX009 (ip), vehicle: Klucel (hydroxypropylcellulose) (HPC)) was 98 % of control and the T/C (dose: 100.0 mg/kg/injection, schedule: Q01DX009 (ip), vehicle: Klucel (hydroxypropylcellulose) (HPC)) was 102 % of control.
In the case of `COc1cc2c(c(OC)c1OC)C(=O)CCC2`, the T/C (dose: 25.0 mg/kg/injection, schedule: Q04DX003 (ip), vehicle: Klucel (hydroxypropylcellulose) (HPC)) is reported as 100 % of control, the T/C (dose: 50.0 mg/kg/injection, schedule: Q04DX003 (ip), vehicle: Klucel (hydroxypropylcellulose) (HPC)) is reported as 104 % of control and the T/C (dose: 100.0 mg/kg/injection, schedule: Q04DX003 (ip), vehicle: Klucel (hydroxypropylcellulose) (HPC)) is reported as 92 % of control and 93 % of control. For the same molecule, the T/C (dose: 400.0 mg/kg/injection, schedule: Q04DX003 (ip), vehicle: Klucel (hydroxypropylcellulose) (HPC)) was 90 % of control.
`CC(C)=CCC(OC(=O)C=C(C)C)c1cc(O)c2c(O)ccc(O)c2c1O.[Cu]` (configuration not stated) was tested, and the T/C (dose: 100.0 mg/kg/injection, schedule: Q04DX002 (ip), vehicle: saline with Tween-80) was 101 % of control and the T/C (dose: 200.0 mg/kg/injection, schedule: Q04DX002 (ip), vehicle: saline with Tween-80) was 104 % of control.
`[Cl][Pt+2][Cl].[NH-]Cc1ccccc1[NH-]` was tested, and the T/C (dose: 6.25 mg/kg/injection, schedule: Q04DX002 (ip), vehicle: saline with Tween-80) was 164 % of control, the T/C (dose: 12.5 mg/kg/injection, schedule: Q04DX002 (ip), vehicle: saline with Tween-80) was 164 % of control and the T/C (dose: 25.0 mg/kg/injection, schedule: Q04DX002 (ip), vehicle: saline with Tween-80) was 167 % of control.
In the case of `Nc1nn2nnnc2c2ccccc12`, the T/C (dose: 25.0 mg/kg/injection, schedule: Q04DX002 (ip), vehicle: saline) is reported as 107 % of control, the T/C (dose: 50.0 mg/kg/injection, schedule: Q04DX002 (ip), vehicle: saline) is reported as 96 % of control and the T/C (dose: 100.0 mg/kg/injection, schedule: Q04DX002 (ip), vehicle: saline) is reported as 101 % of control and 89 % of control. The T/C (dose: 400.0 mg/kg/injection, schedule: Q04DX002 (ip), vehicle: saline) was 92 % of control.
`Cn1c(COc2ccc(/C=N/Nc3ccnc(N/N=C/c4ccc(OCc5c[n+]6ccccc6n5C)cc4)n3)cc2)c[n+]2ccccc12` was tested, and the T/C (dose: 12.5 mg/kg/injection, schedule: Q01DX005 (ip), vehicle: saline with Tween-80) was 105 % of control, the T/C (dose: 25.0 mg/kg/injection, schedule: Q01DX005 (ip), vehicle: saline with Tween-80) was 106 % of control and the T/C [1] was 104 % of control and 107 % of control. The T/C [2] was 99 % of control and the T/C [3] was 97 % of control.
With `CC(=O)OC(OC(C)=O)c1ccc([N+](=O)[O-])c([N+](=O)[O-])c1` the T/C (dose: 12.5 mg/kg/injection, schedule: Q01DX010 (ip), vehicle: saline) was 104 % of control, the T/C (dose: 25.0 mg/kg/injection, schedule: Q01DX010 (ip), vehicle: saline) was 109 % of control and the T/C (dose: 50.0 mg/kg/injection, schedule: Q01DX010 (ip), vehicle: saline) was 100 % of control.
